# Paper PMC7497692 (Investigational New Drugs, 2020)
# Like-named read-outs stand apart in the source and are kept apart here.
# Key:
# [1] = cited from earlier work
# [2] = parameters: method as in PMID 23553846; conditions: xenograft mice; cited from earlier work
# [3] = Oral and IV tracer PK and absolute bioavailability (part B); format: in vivo, human healthy male volunteers; conditions: for bioavailability: 500 mg; for tlag / tmax: median (min–max)
# Procedure: Participants were hospitalized from day 1 to day 7 of the study, and further assessed on days 9, 11, and 14 (study end).
# In brief, the isotopically labeled internal standard [^2H]-MSC2156119A was added to 20 μL K2-ethylenediaminetetraacetic acid (EDTA) plasma. […] Samples were centrifuged and 10 μL aliquots of the supernatant were injected onto an Acquity Charged Surface Hybrid™ (CSH) C18 column (2.1 × 50 mm; […]; Waters, Milford, Massachusetts, USA). Separation was carried out using a mobile phase gradient (eluent A: water/formic acid [100 + 1, v/v]; eluent B: acetonitrile/formic acid [100 + 1, v/v]) with a flow rate of 0.6 mL/min. […] The lower limit of quantification (LLOQ) was 5.00 ng/mL, and the calibration standard responses were linear over the range between 5.00 and 2500 ng/mL using a weighted (1/x^2) linear regression.
# The accelerator mass spectrometry (AMS) analysis of [^14C]-tepotinib in plasma samples in part B of the trial was performed by Eckert & Ziegler Vitalea Science (Davis, California, USA) using a validated method that involves isolation of the analyte by ultra-high-performance liquid chromatography (UPLC) fractionation, followed by the quantification of the ^14C content in collected fractions using AMS [26]. […] Following protein precipitation and further chemical steps, 50 μL of the reconstituted extracts were injected onto a Waters Acquity UPLC instrument equipped with a CSH fluoro-phenyl analytical column (3.0 × 100 mm; 1.7 μm; Waters, Milford, Massachusetts, USA) and an ethylene bridged hybrid C18 (2.1 × 5 mm; 1.7 μm; Waters, Milford, Massachusetts, USA) pre-column. Separation of [^14C]-tepotinib from potentially interfering metabolites or degradants that may have been present in the study samples was carried out using a mobile phase gradient (eluent A: 5 mM ammonium acetate in water; eluent B: acetonitrile) with a flow rate of 0.75 mL/min. […] Samples were then introduced into the BioMICADAS AMS instrument (PSI/ETH, Zurich, Switzerland). The LLOQ was 0.0883 pg/mL.
# The maximum plasma concentration (Cmax) and time to reach maximum concentration (tmax) were derived directly from the plasma concentration–time data. Lag time (tlag) was the time prior to the first measurable (non-zero) concentration. The area under the plasma concentration–time curve from 0 to t (last measurable concentration; AUC0–t) was calculated using a mixed log–linear trapezoidal method. Area under the plasma concentration–time curve until the last sampling time (AUCall), which corresponds to AUC0–240 h within the observation period, was used for metabolite calculations. Amounts excreted in urine, feces, and total (urine + feces) were calculated as the sum of amounts (concentration multiplied by volume) for each collection from time 0 to time t. The terminal rate constant (λz) was used to estimate the terminal half-life (t½) (ln 2/λz), and the area under the concentration–time curve from time 0 to infinity (AUC0–∞). Total body clearance (CL) and apparent body clearance (CL/f) were determined by dose/AUC0–∞, and total volume of distribution (Vz) and apparent volume of distribution (Vz/f) were calculated by dose/(AUC0–∞*λz) after IV and oral administration, respectively. Volume of distribution of the central compartment (Vc) was derived by dividing the dose by the initial drug plasma concentration after IV administration. Absolute bioavailability was calculated as F = (AUCoral/doseoral)/(AUCIV/doseIV) × 100. The ratios (%) AUCtepotinib or metabolite/AUCtotal radioactivity were calculated as a percentage of the molar AUCs.
# [4] = Unbound fraction of tepotinib in plasma, ex vivo equilibrium dialysis (part A); format: in vitro ADME, human healthy male volunteers; conditions: male, human, 498 mg
# Procedure: Participants were hospitalized from day 1 to day 16 of the study, and further assessed on days 19, 22, and 25 (trial end). […] Pre-dose feces and urine samples were collected on day 1 and day 2, respectively. Urine was collected at 4- to 12-h intervals on day 1 and every 24 h thereafter up to day 16. Feces were collected every 24 h up to day 16. Provision was made to collect further samples up to day 39 if >1% of the administered dose was detectable in the total (urine and feces) excreta per day on two consecutive measurements.
# Plasma (300 μL) was dialyzed against 100 mM sodium phosphate buffer (pH 7.4) in an orbital shaker at 37 °C for 18 h. The deuterated internal standard [^2H]-MSC2156119A and 100 mM sodium phosphate buffer (pH 7.4) were added to 5 μL of the dialyzed samples and centrifuged. Supernatant (30 μL) was diluted with acetonitrile/water (50 + 50, v/v) and centrifuged, and 5–20 μL aliquots were injected onto an XBridge C18 column (2.1 × 20 mm; 5 μm; Waters, Milford, Massachusetts, USA). Separation was carried out using a mobile phase gradient (eluent A: 5 mM ammonium bicarbonate in water; eluent B: 5 mM ammonium bicarbonate in methanol) with a flow rate of 1.2 mL/min. Mass spectrometric detection of tepotinib and its internal standard was performed as described above. The LLOQ was 0.015 ng/mL in plasma dialysates and 1.00 ng/mL in plasma. Calibration standards between 0.015 and 30.0 ng/mL (plasma dialysates), and between 1.00 ng/mL and 1000 ng/mL (plasma) were calculated by weighted (1/x^2) quadratic regression analysis, respectively.
# [5] = Safety assessment (TEAEs, NCI-CTCAE v4.0); format: in vivo, human healthy male volunteers
# Procedure: Treatment-emergent adverse events (TEAEs), changes in laboratory tests, ECG, vital signs, and physical examinations were assessed and graded using the National Cancer Institute Common Terminology Criteria for Adverse Events (NCI-CTCAE) version 4.0. All safety endpoints across both parts of the study were analyzed descriptively.
# [6] = single oral 500 mg tablet, geometric mean (geometric CV%), min–max
# [7] = single oral 500 mg tablet, listed as tepotinib
smiles,measurement,setting,value
CN1CCC(COc2cnc(-c3cccc(Cn4nc(-c5cccc(C#N)c5)ccc4=O)c3)nc2)CC1 [Tepotinib],main binding partners in plasma,[1],human serum albumin and α-acid glycoprotein
same,unbound fraction of tepotinib in human plasma,"[1]; in vitro, concentration range 0.3–10 μM",1.6–3.4%
same,tumor versus plasma concentration,[2],higher concentrations in xenograft tumors than in the plasma of mice
same,"absolute bioavailability, inter-individual variability (geometric CV)","[3]; 500 mg tablet vs IV tracer, n=6",10.8%
same,Vc,"[3]; IV tracer, geometric mean (geometric CV%), min–max",34.6 L
same,t½,"[3]; IV tracer, geometric mean (geometric CV%), min–max, plasma",31.2 h
same,bioavailability,"[3]; male, human, in vivo, geometric mean, 500 mg phase II tablet formulation vs IV tracer, n=6, read-out: absolute bioavailability",72%
same,bioavailability,"[3]; male, human, in vivo, range, 500 mg tablet vs IV tracer, n=6, read-out: absolute bioavailability, range",62 to 81%
same,clearance,"[3]; male, human, in vivo, IV tracer, geometric mean (geometric CV%), min–max",213 mL/min
same,Vd,"[3]; male, human, in vivo, IV tracer, geometric mean (geometric CV%), min–max, read-out: Vz",574 L
same,Vd/F,"[3]; male, human, in vivo, single oral 500 mg tablet, geometric mean (geometric CV%), min–max, read-out: Vz/f",726 L
same,half-life,"[3]; male, human, in vivo, summary statement in the discussion",1800 min
same,CL/f,[3]; [6],17.8 L/h
same,t½,[3]; [6],28.3 h
same,tlag,[3]; single oral 500 mg tablet,0.52 (0.25–2.0) Hours
same,tmax,[3]; single oral 500 mg tablet,10.0 (3.0–10.0) Hours
same,tlag,[3]; [7],0.5 h
same,tmax,[3]; [7],10 h
same,fraction unbound at 18 h,"[4]; pH 7.4, ex vivo, 4–24 h after oral administration, read-out: highest free fraction observed in individual participants",0.0325
same,fraction unbound at 18 h,"[4]; pH 7.4, ex vivo, 4–24 h after oral administration, read-out: lowest free fraction observed in individual participants",0.0165
same,fraction unbound at 18 h,"[4]; pH 7.4, unbound fraction of tepotinib in plasma, median values, ex vivo, range of medians at 4, 8, 12 and 24 h after oral administration",0.018 to 0.024
same,number of TEAEs of grade one severity,"[5]; NCI-CTCAE, of 19 TEAEs",17
same,"deaths, serious or other significant adverse events",[5]; both parts,"neither deaths, serious adverse events, nor other significant adverse events were reported"
same,volunteers who experienced TEAEs,"[5]; both parts, single 500 mg dose",75%
same,healthy volunteers who experienced TEAEs,"[5]; both parts, single oral 500 mg",Nine of 12
same,number of TEAEs,[5]; in nine of 12 volunteers,19
same,number of TEAEs judged treatment related,[5]; of 19 TEAEs,Eight
same,tolerability,"[5]; single oral dose of 500 mg, healthy volunteers",well tolerated
